In patent US9834520B2, “Heterocyclic compound” (TAKEDA PHARMACEUTICAL COMPANY LIMITED, priority 2013, dated 2017):
Where two headings read alike, the source gives them in different places.

Columns and labels:
human PBMC = test: IL17 production test in human PBMC; format: cell-based; settings: 72 h, 10 μM of test compound, IL-17A in culture supernatant, 3 days, read-out: inhibitory rate (%)
Description: IL17 Production Test in Human PBMC
Peripheral blood mononuclear cells (PBMC) collected from human peripheral blood by a density gradient centrifugation method were stimulated by Dynabeads (registered trade mark; anti-CD3/CD28 antibody) and cultured at 37° C. for 3 days. The test compound was dissolved in DMSO and then added thereto. After culture for 3 days under such conditions, the concentration of IL-17A in the culture supernatant obtained by centrifugation was measured by ELISA to evaluate the effect of the compound on IL-17 production.

Th17 cells = test: Mouse Th17 cell differentiation test (IL-17A by ELISA); format: cell-based; settings: 96 h, 10 μM of test compound, IL-17A in culture supernatant, 4 days, read-out: inhibitory rate(%)
Description: Mouse Th17 Cell Differentiation Test
CD4 positive naive T cells were collected from the spleen cells of Balb/c mice (female, 8-11w) using CD4+CD62L+ T Cell Isolation kit II (Miltenyi Biotec). The CD4 positive naive T cells was plated in a 96 well plate (3×10^5 cells/well), and stimulated (37° C. for culture) with anti-mouse CD3ε antibody (10 μg/mL, solid phase) and anti-CD28 antibody (5 μg/mL) for 4 days in the presence of anti-IFN-γ antibody, anti-IL-4 antibody, anti-IL-2 antibody, IL-6, TGF-β and IL-23 to differentiate into Th17 cells. The compound was dissolved in DMSO and then added thereto. The cells were cultured under these conditions for 4 days, and differentiation of the Th17 cells was evaluated by using the concentration of IL-17A, which was measured by ELISA, in the culture supernatant obtained by centrifugation.

RORγt [1] = target: T1, RORγt (Homo sapiens, UniProt P51449); test: Cofactor recruitment test (Alpha Screen, biotinylated SRC-1 peptide); format: biochemical; settings: test compound 1 μM; read-out: signal value inhibitory rate (%)
T1 sequence (P51449 1-497 isoform P51449-2): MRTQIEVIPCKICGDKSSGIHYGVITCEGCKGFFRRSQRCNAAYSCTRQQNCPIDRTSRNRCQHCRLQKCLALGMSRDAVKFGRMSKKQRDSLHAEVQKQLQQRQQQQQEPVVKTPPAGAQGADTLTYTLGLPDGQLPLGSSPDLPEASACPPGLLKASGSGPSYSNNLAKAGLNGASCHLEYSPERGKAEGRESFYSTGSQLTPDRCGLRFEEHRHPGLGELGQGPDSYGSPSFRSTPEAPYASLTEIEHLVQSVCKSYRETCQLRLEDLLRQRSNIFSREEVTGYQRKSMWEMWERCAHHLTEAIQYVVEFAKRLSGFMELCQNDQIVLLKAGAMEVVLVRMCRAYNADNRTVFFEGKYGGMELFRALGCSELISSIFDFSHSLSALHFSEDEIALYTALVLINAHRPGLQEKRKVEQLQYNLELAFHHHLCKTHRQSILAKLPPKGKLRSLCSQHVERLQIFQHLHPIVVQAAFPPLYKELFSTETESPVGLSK
Description: Cofactor Recruitment Test
Cofactor recruitment test was performed by Alpha Screen (Histidine Detection Kit, PerkinElmer) method. First, a test compound diluted with an assay buffer (50 mM Tris-HCl (pH 7.5), 50 mM KCl, 1 mM DTT, 0.1% BSA) was added to a 384 well plate by 5 μL each. […] The mixture was stood in a dark place for 1 hr, and the signal value was measured by Envision (PerkinElmer).

RORγt [2] = target: T1, RORγt; test: Jurkat reporter test (IL-17 ROR response element luciferase); format: cell-based; parameters: expressed in transfected cells; host or cells: Jurkat cells; settings: test compound 3 μM, Jurkat cells, read-out: luminescence level inhibitory rate (%)
Description: The Jurkat cells used for the reporter test were cultured in a culture medium (RPMI (Invitrogen), 10% FCS (AusGeneX), 100 U/mL penicillin, 100 μg/mL streptomycin). On the day of the test, 4×10^7 cells were recovered by a centrifugal operation (1000 rpm, 5 min.) and suspended in PBS (phosphate buffered saline) (Invitrogen). Thereafter, the cells were recovered again by a centrifugal operation, and suspended in 2 mL of R buffer (NEON transfection kit, Invitrogen). […] Gene transfer was performed by Electroporation apparatus (NEON, Invitrogen) under the conditions of pulse voltage 1350 V, interval 10 milliseconds, number of times 3. The cells after gene transfer were suspended in 40 mL of a reaction medium (RPMI, 10% Lipid reduced FCS (HyClone), 10 mM HEPES (pH 7.5), 100 U/mL penicillin, 100 μg/mL streptomycin, 5 μM lovastatin), and plated in a 96 well plate by 90 μL each. A test compound diluted with the reaction medium was added by 10 μL each, and the cells were cultured overnight in an incubator. Bright-Glo (Promega) was added by 100 μL each, and the mixture was stirred at room temperature for 10 min, and the luminescence level was measured by Envision (PerkinElmer).

RORγt [3] = target: T1, RORγt; test: RORγt binding test (TR-FRET, fluorescent-labeled cholesterol); settings: binding inhibitory rate of fluorescent-labeled cholesterol to RORγt at test compound 1 μM
Description: The binding activity of the test compound to RORγt was measured by a time resolved fluorescence resonance energy transfer method (TR-FRET) utilizing histidine-tagged RORγt, fluorescent-labeled cholesterol (BODIPY-cholesterol, AVIVA) and terbium-labeled anti-histidine tag antibody (Invitrogen). First, a test compound diluted with an assay buffer (20 mM Tris-HCl (pH 7.5), 100 mM NaCl, 1 mM DTT, 0.1% BSA) was added to a 384 well plate by 3 μL each. Then, RORγt diluted with an assay buffer to 240 nM was added by 3 μL each, after which fluorescent-labeled cholesterol diluted with the assay buffer to 12 μM was added by 3 μL each, and the mixture was stood at room temperature for 20 min. Thereafter, a terbium-labeled anti-histidine tag antibody diluted with the assay buffer to 8 nM was added by 3 μL each. The mixture was stood at room temperature for 20 min, and fluorescence intensity (excitation wavelength 320 nm, fluorescence wavelength 520 nm, delay time 100 microseconds) was measured by Envision (PerkinElmer).

| inhibition at 3 µM (RORγt [2]) | SMILES | inhibition at 10 µM (human PBMC) | inhibition at 10 µM (Th17 cells) | inhibition at 1 µM (RORγt [1]) | inhibition at 3 µM (RORγt [2]; Jurkat) | inhibition at 1 µM (RORγt [3]) |
| --- | --- | --- | --- | --- | --- | --- |
| – | CC(CC(=O)Nc1ccc(C#N)c(Cl)c1)CC(=O)Nc1ccc2c(c1)c(=O)n(CC1CC1)c(=O)n2CC1CC1 (centres unmarked) [Example 2, N-(1,3-bis(cyclopropylmethyl)-2,4-dioxo-1,2,3,4-tetrahydroquinazolin-6-yl)-N′-(3-chloro-4-cyanophenyl)-3-methylpentanediamide] | 96% | 97% | – | – | – |
| – | CCn1c(=O)c2cc(C(=O)NCC(C)CC(=O)Nc3ccc(C#N)c(Cl)c3)ccc2n(CC)c1=O (centres unmarked) [Example 4, N-(4-((3-chloro-4-cyanophenyl)amino)-2-methyl-4-oxobutyl)-1,3-diethyl-2,4-dioxo-1,2,3,4-tetrahydroquinazoline-6-carboxamide] | 97% | – | 105% | 116% | 96.7% |
| – | CCC1Oc2cc(NC(=O)CC(C)CC(=O)Nc3ccc(C#N)c(Cl)c3)ccc2N(CC)C1=O (centres unmarked) [Example 7, N-(3-chloro-4-cyanophenyl)-N′-(2,4-diethyl-3-oxo-3,4-dihydro-2H-1,4-benzoxazin-7-yl)-3-methylpentanediamide] | 100% | – | – | – | – |
| – | CCN1C(=O)C(c2ccccc2)Oc2cc(NC(=O)CC(C)CC(=O)Nc3ccc(C#N)c(Cl)c3)ccc21 (centres unmarked) [Example 12, N-(3-chloro-4-cyanophenyl)-N′-(4-ethyl-3-oxo-2-phenyl-3,4-dihydro-2H-1,4-benzoxazin-7-yl)-3-methylpentanediamide] | 97% | 97% | 104% | 120% | 98.3% |
| – | CCn1c(=O)c2cc(C(=O)NCC(CC(=O)Nc3ccc(C#N)c(Cl)c3)C(C)C)ccc2n(CC)c1=O (centres unmarked) [Example 17, N-(4-((3-chloro-4-cyanophenyl)amino)-2-isopropyl-4-oxobutyl)-1,3-diethyl-2,4-dioxo-1,2,3,4-tetrahydroquinazoline-6-carboxamide] | 84% | – | 103% | 121% | 101% |
| 115% | CCn1c(=O)c2cc(NC(=O)CC(C)CNC(=O)c3ccc(C#N)c(Cl)c3)ccc2n(CC)c1=O (centres unmarked) [Example 23, 3-chloro-4-cyano-N-(4-((1,3-diethyl-2,4-dioxo-1,2,3,4-tetrahydroquinazolin-6-yl)amino)-2-methyl-4-oxobutyl)benzamide] | – | 94% | 104% | – | 97.3% |
| – | CCn1c(=O)c2cc(NC(=O)CC(C)CC(=O)Nc3ccc(C#N)c(Cl)c3)ccc2n(C[Si](C)(C)C)c1=O (centres unmarked) [Example 126, N-(3-chloro-4-cyanophenyl)-N′-(3-ethyl-2,4-dioxo-1-((trimethylsilyl)methyl)-1,2,3,4-tetrahydroquinazolin-6-yl)-3-methylpentanediamide] | – | – | 100% | 102% | 103% |
| – | CCn1c(=O)c2cc(NC(=O)CC(C)CC(=O)Nc3ccc(C#N)c(Cl)c3)cc(F)c2n(CC)c1=O (centres unmarked) [Example 129, N-(3-chloro-4-cyanophenyl)-N′-(1,3-diethyl-8-fluoro-2,4-dioxo-1,2,3,4-tetrahydroquinazolin-6-yl)-3-methylpentanediamide] | – | – | 100% | 102% | 100% |
| – | CCn1c(=O)c2cc(NC(=O)CC(C)CC(=O)Nc3ccc(C#N)c(Cl)c3)c(F)cc2n(CC)c1=O (centres unmarked) [Example 130, N-(3-chloro-4-cyanophenyl)-N′-(1,3-diethyl-7-fluoro-2,4-dioxo-1,2,3,4-tetrahydroquinazolin-6-yl)-3-methylpentanediamide] | – | – | 102% | 101% | 101% |
| – | CCn1c(=O)n(CC2CC2)c(=O)c2cc(NC(=O)CC[C@@H](O)C(=O)Nc3ccc(C#N)c(Cl)c3)ccc21 [Example 138, (2R)—N^1-(3-chloro-4-cyanophenyl)-N^5-(3-(cyclopropylmethyl)-1-ethyl-2,4-dioxo-1,2,3,4-tetrahydroquinazolin-6-yl)-2-hydroxypentanediamide] | – | – | 100% | 104% | 104% |
| – | CCn1c(=O)n(CC2CC2)c(=O)c2cc(NC(=O)CC[C@H](O)C(=O)Nc3ccc(C#N)c(Cl)c3)ccc21 [Example 139, (2S)—N^1-(3-chloro-4-cyanophenyl)-N^5-(3-(cyclopropylmethyl)-1-ethyl-2,4-dioxo-1,2,3,4-tetrahydroquinazolin-6-yl)-2-hydroxypentanediamide] | – | – | 102% | 104% | 102% |
| – | CCn1c(=O)n(CC2CC2)c(=O)c2cc(NC(=O)[C@@H](O)CCC(=O)Nc3ccc(C#N)c(Cl)c3)ccc21 [Example 141, (2S)—N^5-(3-chloro-4-cyanophenyl)-N^1-(3-(cyclopropylmethyl)-1-ethyl-2,4-dioxo-1,2,3,4-tetrahydroquinazolin-6-yl)-2-hydroxypentanediamide] | – | – | 102% | 103% | 102% |
